{"source": "patent US6114326A", "about": "“Use of cabergoline in the treatment of restless legs syndrome” (priority 1999, dated 2000)", "key": {"[1]": {"test_system": "restless legs syndrome patients", "settings": "7.5 mg, cited from earlier work"}, "[2]": {"test_system": "restless legs syndrome patients", "test": "Prior treatment history of the trial patients", "method": "See also, Stiasny K., Oertel W. H., Schuiler P. (1998). Cabergoline in RLS, ENS, Nice, Abstract.\nEfficacy was assessed by polysomnography and subjective ratings. […] At study entry all patients were comedicated with domperidone (20 mg TID) and five were still under levodopa therapy (400-800 mg).\nSubjects. Nine patients (seven women and two men, mean age 54.1±8.7, range 38.1-64.3 years) with idiopathic RLS for 23.1±13.7 years (range 5-47 years) participated. […] At study entry five patients were on levodopa with dosages ranging from 400-800 mg. […] The remaining four patients were off any specific RLS medication during baseline investigation. […] At baseline conditions the physician considered the patients to be extremely ill (2), very ill (4) or markedly ill (3)."}, "[3]": {"test_system": "restless legs syndrome patients", "settings": "cited from earlier work"}, "[4]": {"settings": "cited from earlier work"}, "[5]": {"test_system": "restless legs syndrome patients", "settings": "cited from earlier work", "remark": "listed apart in the source"}, "[6]": {"test_system": "restless legs syndrome patients", "settings": "in vivo; cited from earlier work"}, "[7]": {"test_system": "restless legs syndrome patients", "settings": "open clinical trials of opioids; cited from earlier work"}}, "note": "Like-named read-outs stand apart in the source and are kept apart here."}
{"smiles": "CC(C)C[C@H]1C(=O)N2CCC[C@H]2[C@]2(O)O[C@](NC(=O)[C@@H]3C=C4c5cccc6[nH]c(Br)c(c56)C[C@H]4N(C)C3)(C(C)C)C(=O)N12", "note": "[Bromocriptine]", "values": [{"measurement": "patients with subjective improvement in restlessness and paresthesia compared to placebo", "setting": "[1]; 1 to 3 hours prior to sleep, double blind crossover", "value": "5 of 6"}, {"measurement": "side effects", "setting": "[1]; one patient", "value": "transient nasal stuffiness and lightheadedness"}, {"measurement": "side effect under prior treatment", "setting": "[2]; bromocriptine 5 mg, one patient", "value": "severe arterial hypotension"}]}
{"smiles": "N[C@@H](Cc1ccc(O)c(O)c1)C(=O)O", "note": "[L-dopa]", "values": [{"measurement": "suppression of RLS (in words)", "setting": "[3]; 100 mg with carbidopa 10 mg, most cases", "value": "completely suppresses RLS"}, {"measurement": "rebound (augmentation) of PLMS in last part of the night", "setting": "[3]; 100 mg with carbidopa 10 mg", "value": "often observed"}, {"measurement": "rate of augmentation", "setting": "[3]; 12 week study, Callado-Seidel et al.", "value": 27, "unit": "%"}, {"measurement": "patients with augmentation reporting 3 major symptoms of increased severity", "setting": "[3]; 22 RLS patients with augmentation", "value": 100, "unit": "%"}, {"measurement": "rate of augmentation in PLMS patients", "setting": "[3]; Allen and Earley, Sleep 1996", "value": 31, "unit": "%"}, {"measurement": "rate of augmentation in RLS patients", "setting": "[3]; Allen and Earley, Sleep 1996", "value": 82, "unit": "%"}, {"measurement": "RLS patients with augmentation requiring a medication change", "setting": "[3]; Allen and Earley", "value": 50, "unit": "%"}, {"measurement": "patients who responded to levodopa", "setting": "[3]; Earley and Allen", "value": "21 of 51"}, {"measurement": "time until patients no longer respond well (tolerance)", "setting": "[3]; L-Dopa or L-Dopa plus dopa-decarboxylase-inhibitor, usually", "value": "≤ 6", "unit": "months"}, {"measurement": "patients reporting increased movement in other body parts", "setting": "[3]; RLS patients with augmentation", "value": 7, "unit": "%"}, {"measurement": "tolerance (in words)", "setting": "[3]; RLS", "value": "common"}, {"measurement": "reduction of RLS at bedtime and PLMS throughout the night (in words)", "setting": "[3]; double-blind PSG study, administered twice at night", "value": "significant reduction"}, {"measurement": "efficacy in RLS (in words)", "setting": "[3]; with peripheral carboxylase inhibitor, 10:1 ratio", "value": "effective"}, {"measurement": "benefit of previous levodopa therapy", "setting": "[2]; all patients, standard or standard and slow release", "value": "partial benefit"}, {"measurement": "half-life", "setting": "[4]; levodopa, regular release", "value": "2 to 4", "unit": "h"}]}
{"smiles": "CCCN1C[C@H](CSC)C[C@@H]2c3cccc4[nH]cc(c34)C[C@H]21", "note": "[Pergolide]", "values": [{"measurement": "effect in patients who developed augmentation under levodopa", "setting": "[5]; 6 month open label trial", "value": "some effect"}, {"measurement": "patients who responded well to pergolide", "setting": "[5]; Earley and Allen", "value": "19 of 26"}, {"measurement": "pergolide patients with augmentation", "setting": "[5]; Earley and Allen", "value": "4 of 26"}, {"measurement": "side effects", "setting": "[5]; pergolide with low dose L-dopa", "value": "orthostatic hypotension and gastrointestinal problems"}, {"measurement": "patients suffering from augmentation", "setting": "[5]; pergolide, Earley and Allen", "value": 15, "unit": "%"}, {"measurement": "augmentation under pergolide (in words)", "setting": "[5]; two open trials, follow-up 6 to 28 and 2 to 39 months", "value": "to a lower degree and less severe"}, {"measurement": "clinical improvement (in words)", "setting": "[5]; with low dose L-dopa, patients not responding to L-dopa alone", "value": "clinical improvement"}, {"measurement": "half-life", "setting": "[4]; pergolide", "value": "7 to 16", "unit": "h"}]}
{"smiles": "NCC1(CC(=O)O)CCCCC1", "note": "[gabapentin]", "values": [{"measurement": "possible side effects", "setting": "[6]", "value": "dizziness, sleepiness, fatigue, increased appetite, and unsteadiness"}]}
{"smiles": "C=CCN1CC[C@]23c4c5ccc(O)c4O[C@H]2C(=O)CC[C@@]3(O)[C@H]1C5", "note": "[naloxone]", "values": [{"measurement": "reversal by naloxone (in words)", "setting": "[7]", "value": "reversible"}]}
